Entries after “also recorded” stand apart in the source; their conditions may differ. Like-named read-outs stand apart in the source and are kept apart here.
Columns and labels:
[1] = Diffusion cell tests with porcine oral mucosa (Franz cells) (Example 8); type: in vitro ADME; settings: 2.5% DendroSol; 0.025 mg/100 μL LSD
Method: FIG. 3 Diffusion cell tests with psilocin, LSD and MDMA in Franz cells in the absence and presence of carrier. The tests were carried out with porcine oral mucosa as described in Example 8 below. Each carrier formulation was used on four diffusion cells each. In the graphic, mean values are shown.
Diffusion cell tests were carried out with porcine oral mucosa. Porcine mucosa was freshly prepared and kept in physiological buffer at pH 7.2 at temperatures between 2-8 °C for less than 36 h prior the experiment. The prepared oral mucosa thickness was 0.4-0.65 mm. Concentrations were determined by HPLC-UV. Four diffusion cells with a surface area of 0.54 cm^2 and an acceptor volume of 12.7 mL were used in the experiments for each formulation. Drug-carrier solutions wherein the solvent was water were prepared by either dissolving the drug in ethanol in a glass beaker, letting the ethanol evaporate under high vacuum and then dissolving the drug in the buffered nanocarrier solution. Alternatively, the drug was mixed with the carrier in ethanol in final conditions, the resulting mixture was dried under high vacuum in case of psilocin and afterwards re-dissolved in purified HPLC water.
Each carrier formulation was used on four diffusion cells each. In the graphic, the results were averaged.
Acceptor medium was physiological NaCl solution which was phosphate-buffered to pH 7.2. […]

5-HT2A receptor = settings: cited from earlier work
[2] = taken by mouth; cited from earlier work
[3] = test system: N-methyl-D-aspartate receptor (NMDAR); settings: cited from earlier work
[4] = intravenous administration of psilocybin; US2022370413A1; cited from earlier work
[5] = cited from earlier work
[6] = Exemplary stability experiment, visual grading of psilocin samples with carriers or stabilizers (Example 6); type: physicochemical; set-up: key to stability, visually graded, under Vacuum at 25 °C / stability, visually graded, at room temperature exposed to air / stability, visually graded, at 50 °C, exposed to air: 0: dark precipitate visible = not stable; 1: discolored = moderately stabilized; 2: slightly discolored = stabilized; 3: transparent = highly stabilized
From the text: Psilocin was mixed with two different batches of CMS carrier (DendroSol®), two different batches of dendritic succinate (hPG-succ, one of which had 25% substitution with succinate, the other one 100%) and two different batches of dendritic succinate functionalized with nalbuphine as anchor molecule (liked via an ester), as well as dendritic succinate deprotonized with NaOH. For comparison, we also mixed psilocin with known stabilizers oxalic acid and ascorbic acid (vitamin C), as well as mixtures of vitamin C with the carriers named above. One sample of pure psilocin solution was kept as a reference.
All samples contained 5 mg/L of psilocin and 2.5 wt % of carrier (for carriers mixed with oxalic acid or vitamin C, the total concentration of additives was 2.5 wt %). In the second part of the experiment, the carrier concentration was varied between 0.6 and 3 wt %.

[7] = cited from earlier work; remark: listed apart in the source

Structure (SMILES): CCN(CC)C(=O)[C@@H]1C=C2c3cccc4[nH]cc(c34)C[C@H]2N(C)C1 [LSD]
- effect of carrier on diffusion rate, water vs ethanol as solvent [1]: the effect was greater when water was used as solvent than with use of ethanol as solvent
- 5-HT2A receptor agonism (5-HT2A receptor; listed as (+) lysergide): partial agonist with a high affinity to this receptor
- 5-HT2A receptor agonism (5-HT2A receptor; listed as lysergide): 5-HT2A receptor agonists

Structure (SMILES): CNC(C)Cc1ccc2c(c1)OCO2 (stereo not shown) [MDMA, 3,4-methylenedioxymethamphetamine]
- duration of effects [2]: 3 to 6 h
- onset of effects [2]: 30 to 45 min

Structure (SMILES): CN[C@]1(c2ccccc2Cl)CCCCC1=O [(S)-ketamine]
- NMDAR antagonism / interaction [3]: stronger

Structure (SMILES): COc1cc(CCN)cc(OC)c1OC [mescaline]
- 5-HT2A receptor agonism (5-HT2A receptor): 5-HT2A receptor agonists

Structure (SMILES): CN(C)CCc1c[nH]c2cccc(OP(=O)(O)O)c12 [psilocybin]
- variation of maximum plasma concentrations of psilocin between individuals [4]: can vary over three-fold between individuals

Structure (SMILES): CN[C@@]1(c2ccccc2Cl)CCCCC1=O [(R)-ketamine]
- antidepressant potency and duration, relative ([5]; (R)-ketamine relative to (S)-ketamine): more long-lasting; also recorded: greater potency and longer-lasting antidepressive effects

Structure (SMILES): CNC1(c2ccccc2Cl)CCCCC1=O (stereo not shown) [ketamine]
- NMDAR antagonism / interaction [3]: antagonist of the N-methyl-D-aspartate receptor

Structure (SMILES): CNC1(c2ccccc2Cl)CCCCC1=O (racemic) [(R,S)-ketamine]
- NMDAR antagonism / interaction [3]: antagonist of the NMDAR
- effect in treatment-resistant PTSD ([5]; patients with treatment-resistant post-traumatic stress disorder): beneficial effects
- antidepressant effect ([5]; treatment-resistant MDD or BD, single or repeated intravenous infusions, 0.5 mg/kg): robust antidepressant and antisuicidal effects

Structure (SMILES): CN(C)CCc1c[nH]c2cccc(O)c12 [Psilocin]
- stability, visually graded, at 50 °C, exposed to air ([6]; 50 °C, exposed to air, all samples contain psilocin (5 mg/L) and 2.5 wt % carrier/additive): 0
- stability of psilocin, conclusion ([6]; conclusion in words): could be significantly improved by adding the right carriers
- effectiveness of carriers for stabilizing psilocin (ranking) ([6]; order of effectiveness, lowest first): pure psilocin<CMS carrier (DendroSol®)<oxalic acid<dendritic succinate (25%)<dendritic succinate (100%)=functionalized dendritic succinate=dendritic succinate deprotonized with NaOH
- stability, visually graded, at room temperature exposed to air ([6]; room temperature, exposed to air, all samples contain psilocin (5 mg/L) and 2.5 wt % carrier/additive): 0
- stability, visually graded, under Vacuum at 25 °C ([6]; under vacuum at 25 °C, all samples contain psilocin (5 mg/L) and 2.5 wt % carrier/additive): 3
- 5-HT2A receptor agonism (5-HT2A receptor): 5-HT2A receptor agonists
- stability in biological samples ([7]; blood or urine): unstable and is degraded fast by both non-enzymatic and enzymatic processes
- stability in ambient and aqueous environments ([7]; exposed to air and aqueous): poor stability due to photodegradation and oxidation
- peak loss over 14 days ([7]; psilocin sample protected from light, 14 days): 50%
